# Experimental data from patent publication US20210386367A1, “DEVICES AND SYSTEMS FOR GASTROINTESTINAL MICROBIOME DETECTION AND MANIPULATION” (Progenity, Inc., priority 2018, published 2021).
# Where two headings read alike, the source gives them in different places.
# Tests used:
# [1] = test system: Enterococcus faecalis clinical isolates; experiment: MIC distribution against clinical isolates; type: cell-based; details: 50 E. faecalis isolates
# [2] = test system: Staphylococcus aureus clinical isolates; experiment: MIC distribution against clinical isolates; type: cell-based; details: 50 S. aureus isolates
# Klebsiella spp. = experiment: Broth microdilution MIC, 50 clinical isolates (20 K. oxytoca, 30 K. pneumoniae); type: cell-based
# How it was run: (§1)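 Medium: cation-adjusted MHB, plus 3% lysed horse blood for streptococci, which were incubated with CO2 planchets. Final inoculum approx. 5×10^5 CFU/mL; serial two-fold drug dilutions per CLSI.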
# Streptococcus spp. = experiment: Broth microdilution MIC, 54 clinical isolates; type: cell-based
# How it was run: as §1
# B. vulgatus ATCC 8482 = experiment: Time-kill assay; type: cell-based, Bacteroides vulgatus; details: 2×, 4×, 8× MIC; 2, 6, 24, 48 hr
# SIBO Bacteria = details: cited from earlier work
# [3] = 54 Streptococcus spp. clinical isolates
compound,measurement,setting,value
CO/N=C(\C(=O)N[C@@H]1C(=O)N2C(C(=O)O)=C(CSc3nc(=O)c(=O)[nH]n3C)CS[C@H]12)c1csc(N)n1 [ceftriaxone],Cumulative percentage of isolates inhibited at MIC,[1]; MIC 1 μg/mL,2.0%
same,Number of test isolates at MIC,[1]; MIC 1 μg/mL,1
same,Cumulative percentage of isolates inhibited at MIC,[1]; MIC 16 μg/mL,4.0%
same,Number of test isolates at MIC,[1]; MIC 16 μg/mL,1
same,Cumulative percentage of isolates inhibited at MIC,[1]; MIC 64 μg/mL,10.0%
same,Number of test isolates at MIC,[1]; MIC 64 μg/mL,3
same,Cumulative percentage of isolates inhibited at MIC,[1]; MIC >64 μg/mL,100.0%
same,Number of test isolates at MIC,[1]; MIC >64 μg/mL,45
same,Number of test isolates at MIC,[2]; MIC 0.008 μg/mL,0
same,Cumulative percentage of isolates inhibited at MIC,[2]; MIC 2 μg/mL,6.0%
same,Number of test isolates at MIC,[2]; MIC 2 μg/mL,3
same,Cumulative percentage of isolates inhibited at MIC,[2]; MIC 4 μg/mL,38.0%
same,Number of test isolates at MIC,[2]; MIC 4 μg/mL,16
same,Cumulative percentage of isolates inhibited at MIC,[2]; MIC 8 μg/mL,44.0%
same,Number of test isolates at MIC,[2]; MIC 8 μg/mL,3
same,Cumulative percentage of isolates inhibited at MIC,[2]; MIC 32 μg/mL,52.0%
same,Number of test isolates at MIC,[2]; MIC 32 μg/mL,4
same,Cumulative percentage of isolates inhibited at MIC,[2]; MIC 64 μg/mL,56.0%
same,Number of test isolates at MIC,[2]; MIC 64 μg/mL,2
same,Number of test isolates at MIC,[2]; MIC >16 μg/mL,2
same,Cumulative percentage of isolates inhibited at MIC,[2]; MIC >64 μg/mL,100.0%
same,Number of test isolates at MIC,[2]; MIC >64 μg/mL,22
same,% I,Klebsiella spp.,6%
same,% R,Klebsiella spp.,28%
same,% S,Klebsiella spp.,66%
same,Mode,Klebsiella spp.,0.06 µg/mL
same,Cumulative percentage of isolates at MIC,Klebsiella spp.; 0.015 μg/mL,2.0%
same,Number of test isolates at MIC,Klebsiella spp.; 0.015 μg/mL,1
same,Cumulative percentage of isolates at MIC,Klebsiella spp.; 0.03 μg/mL,12.0%
same,Number of test isolates at MIC,Klebsiella spp.; 0.03 μg/mL,5
same,Cumulative percentage of isolates at MIC,Klebsiella spp.; 0.06 μg/mL,14.0%
same,Number of test isolates at MIC,Klebsiella spp.; 0.06 μg/mL,16
same,Cumulative percentage of isolates at MIC,Klebsiella spp.; 0.5 μg/mL,64.0%
same,Number of test isolates at MIC,Klebsiella spp.; 0.5 μg/mL,1
same,Cumulative percentage of isolates at MIC,Klebsiella spp.; 1 μg/mL,66.0%
same,Number of test isolates at MIC,Klebsiella spp.; 1 μg/mL,1
same,Cumulative percentage of isolates at MIC,Klebsiella spp.; 2 μg/mL,72.0%
same,Number of test isolates at MIC,Klebsiella spp.; 2 μg/mL,3
same,Cumulative percentage of isolates at MIC,Klebsiella spp.; 8 μg/mL,76.0%
same,Number of test isolates at MIC,Klebsiella spp.; 8 μg/mL,2
same,Cumulative percentage of isolates at MIC,Klebsiella spp.; 32 μg/mL,80.0%
same,Number of test isolates at MIC,Klebsiella spp.; 32 μg/mL,2
same,Cumulative percentage of isolates at MIC,Klebsiella spp.; >128 μg/mL,100.0%
same,Number of test isolates at MIC,Klebsiella spp.; >128 μg/mL,10
same,MIC90,Klebsiella spp.; Klebsiella,> 128 µg/mL
same,MIC50,"Klebsiella spp.; Klebsiella, read-out: MIC50",0.12 µg/mL
same,% I,Klebsiella spp.; listed as CTR,6%
same,% R,Klebsiella spp.; listed as CTR,28%
same,MIC90,Klebsiella spp.; listed as CTR,>128 µg/mL
same,isolates susceptible,Streptococcus spp.,100%
same,MIC50,Streptococcus spp.; [3],0.03 µg/mL
same,MIC90,Streptococcus spp.; [3],0.12 µg/mL
same,MIC range,Streptococcus spp.; [3],8 to 1000 ng/mL
same,% S,"Streptococcus spp.; 54 Streptococcus spp. clinical isolates, MXF by FDA breakpoints",100%
same,MIC50,"Streptococcus spp.; Streptococcus, read-out: MIC50",0.03 µg/mL
same,MIC90,"Streptococcus spp.; Streptococcus, read-out: MIC90",0.12 µg/mL
same,Mode,"Streptococcus spp.; modal MIC, 54 Streptococcus spp. clinical isolates",0.06 µg/mL
same,time-kill kinetics outcome (bactericidal = ≥3 log reduction in CFU per mL),B. vulgatus ATCC 8482,"bactericidal effect was observed at 8×MIC at 6, 24 and 48 hr; at 4×MIC at 6 and 24 hr; and at 2×MIC at 48 hr"
same,activity against SIBO organisms,SIBO Bacteria,active against SIBO organisms
